Source: patent US20060263502A1, “Absorbent material for use in humid conditions” (priority 2003, published 2006)

Assay: Sensitivity to moisture of tetrazine compounds in polystyrene
Assay type: physicochemical
Settings: 0.2M in polystyrene film about 130 μm; relative humidity 93% at 25° C.; at least 42 days; absorbance 500-550 nm
Method: The depletion of the tetrazine compound, as measured by % absorbance change, was used to indicate the sensitivity to moisture of the tetrazine compounds.
Compositions were prepared by blending the tetrazine compounds at a concentration of 0.2M into polystyrene. Each composition was then compression moulded to form a film having a thickness of about 130 μm. Each film sample was then mounted in a cell holder and the maximum absorbance between 500-550 nm measured. The cell holders containing the film samples were then placed on a mesh platform in a 550 mL squat glass jar fitted with a screw cap and polypropylene wad seal. To achieve a relative humidity of 93% at 25° C., a saturated solution of potassium nitrate covered the bottom of the jars (approx. 10 mm below the mesh platform). The jars were stored in a controlled-temperature room at 25° C.
At intervals of several days for at least 42 days, samples were in turn removed from their jars, and the maximum absorbance recorded between 500-550 nm, before immediately returning them to the controlled-temperature room in their sealed jars.

- sensitivity to moisture (depletion of the tetrazine compound, as measured by % absorbance change): highly unstable to moisture
SMILES: COC(=O)c1nnc(C(=O)OC)nn1 [DMTD, dimethyl-1,2,4,5-tetrazine-3,6-dicarboxylate, reference compound]
